Laboratory results taken from patent US9629822B2, “Flavonoid based antiviral targets” (UNIVERSITY OF CENTRAL FLORIDA RESEARCH FOUNDATION, INC., priority 2012, dated 2017).

Tested on: CHO cells
Test: CHO cell toxicity, MTS assay, 48 h
Type: cell-based, Chinese hamster
Conditions: Cricetulus griseus, CHO, 37° C., MTS reagent, read-out: CHO 48 h IC50 value
In short: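 CHO cells plated at 10,000 cells/mL, incubated overnight, then exposed to drug (final DMSO <1%) for 48 h at 37 °C, 5% CO2, in triplicate. MTS added for a further 4 h; absorbance read at 490 nm. IC50 taken from relative A490 versus drug concentration.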

Row | SMILES | IC50
1 | COc1ccc(Br)cc1-c1cc(=O)c2c(O)cccc2o1 [Compound 12b, 2-(5-Bromo-2-methoxyphenyl)-5-hydroxy-4H-chromen-4-one] | 75.2 ± 8.7 µM

Same assay, conditions: Cricetulus griseus, CHO, read-out: CHO 48 h IC50 value (μM)

Row | SMILES | IC50
2 | COc1ccccc1-c1cc(=O)c2c(O)cccc2o1 [Compound 12a, 5-Hydroxy-2-(2-methoxyphenyl)-4H-chromen-4-one] | > 100 µM

Tested on: HIV-1 BaL
Test: Anti-HIV assay (luciferase, HIV-1 BaL infection)
Type: cell-based
Conditions: 1.25 μM, Experiment 2B
In short: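 Cells infected with HIV-1 BaL at 2 ng/mL p24 (MOI approx 0.02) in compound presence. Infection read out by luciferase.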

Row | SMILES | RLU (relative luciferase units)
3 | COc1ccccc1-c1cc(=O)c2c(O)cccc2o1 [Compound 12a, 5-Hydroxy-2-(2-methoxyphenyl)-4H-chromen-4-one] | −3.22 RLU
4 | COc1ccc(Br)cc1-c1cc(=O)c2c(O)cccc2o1 [Compound 12b, 2-(5-Bromo-2-methoxyphenyl)-5-hydroxy-4H-chromen-4-one] | −7.32 RLU

Same assay, conditions: 2.5 μM, Experiment 2B

Row | SMILES | RLU (relative luciferase units)
5 | COc1ccccc1-c1cc(=O)c2c(O)cccc2o1 [Compound 12a, 5-Hydroxy-2-(2-methoxyphenyl)-4H-chromen-4-one] | 28.09 RLU
6 | COc1ccc(Br)cc1-c1cc(=O)c2c(O)cccc2o1 [Compound 12b, 2-(5-Bromo-2-methoxyphenyl)-5-hydroxy-4H-chromen-4-one] | 0.82 RLU

Same assay, conditions: 5 μM, Experiment 2B

Row | SMILES | RLU (relative luciferase units)
7 | COc1ccccc1-c1cc(=O)c2c(O)cccc2o1 [Compound 12a, 5-Hydroxy-2-(2-methoxyphenyl)-4H-chromen-4-one] | 56.78 RLU
8 | COc1ccc(Br)cc1-c1cc(=O)c2c(O)cccc2o1 [Compound 12b, 2-(5-Bromo-2-methoxyphenyl)-5-hydroxy-4H-chromen-4-one] | −1.73 RLU

Same assay, conditions: 10 μM, Experiment 1B, 2 ng/mL p24 HIV-1 BaL

Row | SMILES | RLU (relative luciferase units)
9 | COc1ccccc1-c1cc(=O)c2c(O)cccc2o1 [Compound 12a, 5-Hydroxy-2-(2-methoxyphenyl)-4H-chromen-4-one] | 152.1 RLU
10 | COc1ccc(Br)cc1-c1cc(=O)c2c(O)cccc2o1 [Compound 12b, 2-(5-Bromo-2-methoxyphenyl)-5-hydroxy-4H-chromen-4-one] | 445.1 RLU

Same assay, conditions: 10 μM, Experiment 2B

Row | SMILES | RLU (relative luciferase units)
11 | COc1ccccc1-c1cc(=O)c2c(O)cccc2o1 [Compound 12a, 5-Hydroxy-2-(2-methoxyphenyl)-4H-chromen-4-one] | 83.62 RLU
12 | COc1ccc(Br)cc1-c1cc(=O)c2c(O)cccc2o1 [Compound 12b, 2-(5-Bromo-2-methoxyphenyl)-5-hydroxy-4H-chromen-4-one] | 27.57 RLU

Same assay, conditions: 20 μM, Experiment 2B

Row | SMILES | RLU (relative luciferase units)
13 | COc1ccccc1-c1cc(=O)c2c(O)cccc2o1 [Compound 12a, 5-Hydroxy-2-(2-methoxyphenyl)-4H-chromen-4-one] | 88.46 RLU
14 | COc1ccc(Br)cc1-c1cc(=O)c2c(O)cccc2o1 [Compound 12b, 2-(5-Bromo-2-methoxyphenyl)-5-hydroxy-4H-chromen-4-one] | 36.35 RLU

Same assay, conditions: Human immunodeficiency virus 1, BAL, 1.25 μM, Experiment 2B

Row | SMILES | inhibition at 1.25 µM
15 | COc1ccccc1-c1cc(=O)c2c(O)cccc2o1 [Compound 12a, 5-Hydroxy-2-(2-methoxyphenyl)-4H-chromen-4-one] | 6.38%
16 | COc1ccc(Br)cc1-c1cc(=O)c2c(O)cccc2o1 [Compound 12b, 2-(5-Bromo-2-methoxyphenyl)-5-hydroxy-4H-chromen-4-one] | -8.84%

Same assay, conditions: Human immunodeficiency virus 1, BAL, 2.5 μM, Experiment 2B

Row | SMILES | inhibition at 2.5 µM
17 | COc1ccccc1-c1cc(=O)c2c(O)cccc2o1 [Compound 12a, 5-Hydroxy-2-(2-methoxyphenyl)-4H-chromen-4-one] | 41.7%
18 | COc1ccc(Br)cc1-c1cc(=O)c2c(O)cccc2o1 [Compound 12b, 2-(5-Bromo-2-methoxyphenyl)-5-hydroxy-4H-chromen-4-one] | -2.4%

Same assay, conditions: Human immunodeficiency virus 1, BAL, 5 μM, Experiment 2B

Row | SMILES | inhibition at 5 µM
19 | COc1ccccc1-c1cc(=O)c2c(O)cccc2o1 [Compound 12a, 5-Hydroxy-2-(2-methoxyphenyl)-4H-chromen-4-one] | 123%
20 | COc1ccc(Br)cc1-c1cc(=O)c2c(O)cccc2o1 [Compound 12b, 2-(5-Bromo-2-methoxyphenyl)-5-hydroxy-4H-chromen-4-one] | -3.2%

Same assay, conditions: Human immunodeficiency virus 1, BAL, 10 μM, Experiment 1B, 2 ng/mL p24 HIV-1 BaL

Row | SMILES | inhibition at 10 µM
21 | COc1ccccc1-c1cc(=O)c2c(O)cccc2o1 [Compound 12a, 5-Hydroxy-2-(2-methoxyphenyl)-4H-chromen-4-one] | 83.7%
22 | COc1ccc(Br)cc1-c1cc(=O)c2c(O)cccc2o1 [Compound 12b, 2-(5-Bromo-2-methoxyphenyl)-5-hydroxy-4H-chromen-4-one] | 52.4%

Same assay, conditions: Human immunodeficiency virus 1, BAL, 10 μM, Experiment 2B

Row | SMILES | inhibition at 10 µM
23 | COc1ccccc1-c1cc(=O)c2c(O)cccc2o1 [Compound 12a, 5-Hydroxy-2-(2-methoxyphenyl)-4H-chromen-4-one] | 43%
24 | COc1ccc(Br)cc1-c1cc(=O)c2c(O)cccc2o1 [Compound 12b, 2-(5-Bromo-2-methoxyphenyl)-5-hydroxy-4H-chromen-4-one] | 10.4%

Same assay, conditions: Human immunodeficiency virus 1, BAL, 20 μM, Experiment 2B

Row | SMILES | inhibition at 20 µM
25 | COc1ccccc1-c1cc(=O)c2c(O)cccc2o1 [Compound 12a, 5-Hydroxy-2-(2-methoxyphenyl)-4H-chromen-4-one] | 131%
26 | COc1ccc(Br)cc1-c1cc(=O)c2c(O)cccc2o1 [Compound 12b, 2-(5-Bromo-2-methoxyphenyl)-5-hydroxy-4H-chromen-4-one] | 49.1%

Tested on: not listed separately
Test: TZMbI assay for cell safety (cell viability and growth, CytoTox Glo)
Conditions: human, TZMbI cells, 1.25 μM, Experiment 2A; read-out: % decrease in viability compared to 0.1% DMSO vehicle based on viable cell luminescence
Method: Assays were performed below in accordance with the procedures set forth in The Journal of Immunology, 2006, 176, pp. 6900-905; AIDS Research and Human Retroviruses, 2004, 20:11, pp. 1157-1665.^32,33 TZMbI assays for cell safety were performed to identify potential anti-viral compounds. TZMbI assays for cell safety were performed to identify potential anti-viral compounds per the methods.

Row | SMILES | cytotoxicity at 1.25 μM
27 | COc1ccccc1-c1cc(=O)c2c(O)cccc2o1 [Compound 12a, 5-Hydroxy-2-(2-methoxyphenyl)-4H-chromen-4-one] | 6.38%
28 | COc1ccc(Br)cc1-c1cc(=O)c2c(O)cccc2o1 [Compound 12b, 2-(5-Bromo-2-methoxyphenyl)-5-hydroxy-4H-chromen-4-one] | -8.84%

Same assay, conditions: human, TZMbI cells, 2.5 μM, Experiment 2A; read-out: % decrease in viability compared to 0.1% DMSO vehicle based on viable cell luminescence

Row | SMILES | cytotoxicity at 2.5 μM
29 | COc1ccccc1-c1cc(=O)c2c(O)cccc2o1 [Compound 12a, 5-Hydroxy-2-(2-methoxyphenyl)-4H-chromen-4-one] | 41.7%
30 | COc1ccc(Br)cc1-c1cc(=O)c2c(O)cccc2o1 [Compound 12b, 2-(5-Bromo-2-methoxyphenyl)-5-hydroxy-4H-chromen-4-one] | -2.4%

Same assay, conditions: human, TZMbI cells, 5 μM, Experiment 2A; read-out: % decrease in viability compared to 0.1% DMSO vehicle based on viable cell luminescence

Row | SMILES | cytotoxicity at 5 μM
31 | COc1ccccc1-c1cc(=O)c2c(O)cccc2o1 [Compound 12a, 5-Hydroxy-2-(2-methoxyphenyl)-4H-chromen-4-one] | 123%
32 | COc1ccc(Br)cc1-c1cc(=O)c2c(O)cccc2o1 [Compound 12b, 2-(5-Bromo-2-methoxyphenyl)-5-hydroxy-4H-chromen-4-one] | -3.2%

Same assay, conditions: human, TZMbI cells, 10 μM, Experiment 1A; read-out: % decrease in viability compared to 0.1% DMSO vehicle based on viable cell luminescence

Row | SMILES | cytotoxicity at 10 μM
33 | COc1ccccc1-c1cc(=O)c2c(O)cccc2o1 [Compound 12a, 5-Hydroxy-2-(2-methoxyphenyl)-4H-chromen-4-one] | 44.5%
34 | COc1ccc(Br)cc1-c1cc(=O)c2c(O)cccc2o1 [Compound 12b, 2-(5-Bromo-2-methoxyphenyl)-5-hydroxy-4H-chromen-4-one] | 34.9%

Same assay, conditions: human, TZMbI cells, 10 μM, Experiment 2A; read-out: % decrease in viability compared to 0.1% DMSO vehicle based on viable cell luminescence

Row | SMILES | cytotoxicity at 10 μM
35 | COc1ccccc1-c1cc(=O)c2c(O)cccc2o1 [Compound 12a, 5-Hydroxy-2-(2-methoxyphenyl)-4H-chromen-4-one] | 43%
36 | COc1ccc(Br)cc1-c1cc(=O)c2c(O)cccc2o1 [Compound 12b, 2-(5-Bromo-2-methoxyphenyl)-5-hydroxy-4H-chromen-4-one] | 10.4%

Same assay, conditions: human, TZMbI cells, 20 μM, Experiment 2A; read-out: % decrease in viability compared to 0.1% DMSO vehicle based on viable cell luminescence

Row | SMILES | cytotoxicity at 20 μM
37 | COc1ccccc1-c1cc(=O)c2c(O)cccc2o1 [Compound 12a, 5-Hydroxy-2-(2-methoxyphenyl)-4H-chromen-4-one] | 131%
38 | COc1ccc(Br)cc1-c1cc(=O)c2c(O)cccc2o1 [Compound 12b, 2-(5-Bromo-2-methoxyphenyl)-5-hydroxy-4H-chromen-4-one] | 49.1%

Biological target: T1, US28 receptor (Human cytomegalovirus, UniProt P69332)
T1 construct: expressed in transfected cells; host or cells: HEK 293T cells, transiently transfected
Test: PathDetect trans Elk1 luciferase reporter gene assay in US28-transfected 293T HEK cells
Type: cell-based, Human Cytomegalovirus (HCMV)
Conditions: 293T HEK cells transiently expressing US28, Elk1 reporter; NE = no effect when tested at 10 μM of compound
In short: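 HEK293T cells transiently transfected with Elk1, Luc and US28 vector (empty pcDNA3 for mock) were dosed with compounds in DMEM/1% FBS with 1% DMSO for 20-24 h at 37° C. Bright-Glo luminescence decrease was read; EC50 is halfway between maximal response and no-compound control, by non-linear regression.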

T1 sequence (P69332 whole entry): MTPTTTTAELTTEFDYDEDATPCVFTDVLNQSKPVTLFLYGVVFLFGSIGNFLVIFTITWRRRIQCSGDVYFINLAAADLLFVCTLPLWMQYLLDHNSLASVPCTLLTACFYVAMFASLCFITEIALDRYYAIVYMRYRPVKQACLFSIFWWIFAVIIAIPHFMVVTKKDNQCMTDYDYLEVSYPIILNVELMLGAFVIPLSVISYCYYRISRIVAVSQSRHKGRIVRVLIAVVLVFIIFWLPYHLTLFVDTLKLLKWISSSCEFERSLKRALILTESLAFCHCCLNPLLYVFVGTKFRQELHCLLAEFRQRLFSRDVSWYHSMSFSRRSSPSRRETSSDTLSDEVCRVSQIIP

Row | SMILES | EC50
39 | COc1ccccc1-c1cc(=O)c2c(O)cccc2o1 [Compound 12a, 5-Hydroxy-2-(2-methoxyphenyl)-4H-chromen-4-one] | > 10 µM
40 | COc1ccc(Br)cc1-c1cc(=O)c2c(O)cccc2o1 [Compound 12b, 2-(5-Bromo-2-methoxyphenyl)-5-hydroxy-4H-chromen-4-one] | > 10 µM

Same assay, conditions: EC50 (μM), 293T HEK cells transiently expressing US28, Elk1 reporter; NE = no effect when tested at 10 μM of compound

Row | SMILES | EC50
41 | COc1ccccc1-c1cc(=O)c2c(O)cccc2o1 [Compound 12a, 5-Hydroxy-2-(2-methoxyphenyl)-4H-chromen-4-one] | > 10 µM
42 | COc1ccc(Br)cc1-c1cc(=O)c2c(O)cccc2o1 [Compound 12b, 2-(5-Bromo-2-methoxyphenyl)-5-hydroxy-4H-chromen-4-one] | > 10 µM
